One experiment concerns the target T1, Cannabinoid-1 receptor (CB1R) (Rattus norvegicus, UniProt P20272).
T1 construct: The tissue obtained from the brain of SD rats was homogenized; from tissue; host or cells: brain of SD rats (membrane pellet of the homogenate)
Nature of the experiment: Cannabinoid-1 receptor (CB1R) binding affinity assay ([3H]CP-55940, rat CB-1 receptor binding protocol). Particulars: IC50(nM), brain tissue of SD rats, [3H]CP-55940, 30° C. 60 min.
T1 sequence (P20272 whole entry): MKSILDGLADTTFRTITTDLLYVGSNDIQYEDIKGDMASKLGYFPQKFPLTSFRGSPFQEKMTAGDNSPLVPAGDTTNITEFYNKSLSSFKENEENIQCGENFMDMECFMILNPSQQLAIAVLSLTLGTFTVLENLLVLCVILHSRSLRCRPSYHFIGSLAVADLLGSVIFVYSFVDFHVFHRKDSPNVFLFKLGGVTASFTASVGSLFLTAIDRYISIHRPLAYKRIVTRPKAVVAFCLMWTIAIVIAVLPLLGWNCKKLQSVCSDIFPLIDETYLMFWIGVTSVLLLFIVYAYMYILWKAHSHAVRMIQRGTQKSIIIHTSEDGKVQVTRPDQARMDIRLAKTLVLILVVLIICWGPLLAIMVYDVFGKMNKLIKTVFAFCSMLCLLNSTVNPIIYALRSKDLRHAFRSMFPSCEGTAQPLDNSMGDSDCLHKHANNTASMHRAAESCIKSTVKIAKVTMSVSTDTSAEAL
On to `CCCCC(C)c1nnc(-c2nn(-c3ccc(Cl)cc3Cl)c(-c3ccc(Br)cc3)c2C)s1` (stereo not drawn) [Example 380, 2-(5-(4-Bromophenyl)-1-(2,4-dichlorophenyl)-4-methyl-1H-pyrazol-3-yl)-5-(hexan-2-yl)-1,3,4-thiadiazole], for which the IC50 is 11.5 nM.

The experiment is the same for the next values; noted with them: brain tissue of SD rats, [3H]CP-55940, 30° C. 60 min; read-out: IC50.
For `CC(C)(C)c1nnc(-c2nn(-c3ccc(Cl)cc3Cl)c(-c3ccc(Br)cc3)c2Cn2cncn2)o1` [Example 329, 2-(4-((1H-1,2,4-triazol-1-yl)methyl)-5-(4-bromophenyl)-1-(2,4-dichlorophenyl)-1H-pyrazol-3-yl)-5-tert-butyl-1,3,4-oxadiazole], the IC50 was 2.75 nM.

As to `CCc1c(-c2nnc(C3(c4ccc(Cl)cc4)CC3)s2)nn(-c2ccccc2Cl)c1-c1ccc(Br)cc1` [Example 464, 2-(5-(4-bromophenyl)-1-(2-chlorophenyl)-4-ethyl-1H-pyrazol-3-yl)-5-(1-(4-chlorophenyl)cyclopropyl)-1,3,4-thiadiazole], the IC50 was found to be 4.41 nM.

For the compound `CC(C)c1c(-c2nnc(C3(c4ccc(Cl)cc4)CC3)o2)nn(-c2ccc(Cl)cc2Cl)c1-c1ccc(Cl)cc1` [Example 181, 2-(5-(4-chlorophenyl)-1-(2,4-dichlorophenyl)-4-isopropyl-1H-pyrazol-3-yl)-5-(1-(4-chlorophenyl)cyclopropyl)-1,3,4-oxadiazole], the IC50 stood at 9.72 nM.

Consider `CCc1c(-c2nnc(C3(C)CCCCC3)s2)nn(-c2ccc(Cl)cc2Cl)c1-c1ccc(Br)cc1` [Example 455, 2-(5-(4-bromophenyl)-1-(2,4-dichlorophenyl)-4-ethyl-1H-pyrazol-3-yl)-5-(1-methylcyclohexyl)-1,3,4-thiadiazole], for which the IC50 was 14.5 nM.

In the case of `CC(C)(C)c1nnc(-c2nn(-c3ccc(Cl)cc3Cl)c(-c3ccc(Br)cc3)c2COc2ccc(C(F)(F)F)cn2)s1` [Example 526, 2-(5-(4-bromophenyl)-1-(2,4-dichlorophenyl)-4-((5-(trifluoromethyl)pyridin-2-yloxy)methyl)-1H-pyrazol-3-yl)-5-tert-butyl-1,3,4-thiadiazole], the IC50 came out at 31.3 nM.

In the case of `CCc1c(-c2nnc(C(C)CC)s2)nn(-c2ccc(Cl)cc2Cl)c1-c1ccc(Cl)cc1` (stereo not drawn) [Example 398, 2-sec-butyl-5-(5-(4-chlorophenyl)-1-(2,4-dichlorophenyl)-4-ethyl-1H-pyrazol-3-yl)-1,3,4-thiadiazole], the IC50 stood at 7.99 nM.

Turning to `Clc1ccc(-c2c(Br)c(-c3nnc(C4(c5ccc(Cl)cc5)CC4)o3)nn2-c2ccc(Cl)cc2Cl)cc1` [Example 344, 2-(4-bromo-5-(4-chlorophenyl)-1-(2,4-dichlorophenyl)-1H-pyrazol-3-yl)-5-(1-(4-chlorophenyl)cyclopropyl)-1,3,4-oxadiazole], the IC50 is 11.6 nM.

As to `C=CCOCC(C)(C)c1nnc(-c2nn(-c3ccc(Cl)cc3Cl)c(-c3ccc(Cl)cc3)c2C)o1` [Example 97, 2-(1-(allyloxy)-2-methylpropan-2-yl)-5-(5-(4-chlorophenyl)-1-(2,4-dichlorophenyl)-4-methyl-1H-pyrazol-3-yl)-1,3,4-oxadiazole], the IC50 amounted to 15.7 nM.

As for `CC(C)(C)c1nnc(-c2nn(-c3ccc(Cl)cc3Cl)c(-c3ccc(Br)cc3)c2C(C)(C)O)o1` [Example 218, 2-(5-(4-bromophenyl)-3-(5-tert-butyl-1,3,4-oxadiazol-2-yl)-1-(2,4-dichlorophenyl)-1H-pyrazol-4-yl)propan-2-ol], the IC50 came to 17.1 nM.

As for `CCc1c(-c2nnc(C3(c4ccc(Cl)cc4)CC3)o2)nn(-c2ccc(Cl)cc2Cl)c1-c1ccc(Br)cc1` [Example 111, 2-(5-(4-bromophenyl)-1-(2,4-dichlorophenyl)-4-ethyl-1H-pyrazol-3-yl)-5-(1-(4-chlorophenyl)cyclopropyl)-1,3,4-oxadiazole], the IC50 amounted to 3.96 nM.

On to `CCc1c(-c2nnc(C3CCCCCC3)s2)nn(-c2ccc(Cl)cc2Cl)c1-c1ccc(Br)cc1` [Example 400, 2-(5-(4-bromophenyl)-1-(2,4-dichlorophenyl)-4-ethyl-1H-pyrazol-3-yl)-5-cycloheptyl-1,3,4-thiadiazole], for which the IC50 came out at 5.26 nM.

By IC50 is commonly meant the point on the concentration scale where inhibition reaches its midpoint.
